Data taken from patent US10512696B2, “Nanoscale platinum compounds and methods of use thereof” (priority 2009, dated 2019).

Tests used:
[1] = tested on: Lewis lung cancer cell line (LLC); test: Liponanoparticle cell viability MTS assay, LLC; assay type: cell-based
Protocol: (§1) In a 96 well plate, 2×10^3 cells were plated. After 4 h, cells were treated with different concentrations of free drug or lipo-nanoparticles. Cells without any treatment were kept as control. After 48 h, cell viability was assessed using standard MTS assay according to manufacturer's instructions.

4T1 breast cancer cells = test: Liponanoparticle cell viability MTS assay, 4T1; assay type: cell-based; settings: three time points
Protocol: In a 96 well plate, 2×10^3 cells were plated. After 4 h, cells were treated with different concentrations of free drug or lipo-nanoparticles. Cells without any treatment were kept as control. […]

[2] = tested on: Lewis Lung Carcinoma cell lines (LLC); test: MTS cell viability assay, LLC cells; assay type: cell-based, murine; settings: for EC50: cisplatin-equivalent concentration; for IC50: 48 hours post-incubation, read-out: IC50 (LLC cell kill)
Description: The absorbance reflects the number of surviving cells.

[3] = tested on: cisplatin-resistant cancer cell line (CP20); test: Liponanoparticle cell viability MTS assay, CP20; assay type: cell-based
Protocol: as §1

Lewis lung carcinoma = tested on: Lewis lung carcinoma
Protocol: (§2) The LLC Lung Cancer cells and 4T1 Breast Cancer cells ([…]) were implanted subcutaneously in the flanks of 4-week-old C57/BL6 and BALB/c mice (weighing 20 g, Charles River Laboratories, MA) respectively. The drug therapy was started after the tumors attained volume of 50 mm^3. […] PBS (100 μL) administered by tail-vein injection was used as a control for drug treatment. The tumor volumes and body weights were monitored on a daily basis. The animals were sacrificed when the average tumor size of the control exceeded 2000 mm^3 in the control group. The tumors were harvested immediately following sacrifice and stored in 10% formalin for further analysis. All animal procedures were approved by Harvard institutional IUCAC.
(§3) The tissues were fixed in 10% formalin, paraffin embedded, sectioned and stained with H&E at the Harvard Medical School Core Facility. Tumor and Kidney paraffin sections were deparaffinized and stained with standard TMR-red fluorescent terminal deoxynucleotidyl transferase-mediated dUTP nick end labeling (TUNEL) kit following the manufacturer's protocol (In Situ Cell Death Detection Kit, TMR Red, Roche). Images were obtained using a Nikon Eclipse TE2000 fluorescence microscope equipped with red filter.
(§4) Body weights were recorded daily to assess toxicity. In addition, livers and spleens were removed at the end of treatment to record weights and perform extensive pathological examination to assess toxicity of vital organs. Cell apoptosis in vital organs was measured using TUNNEL assay. Statistical analysis of the toxicity data was performed using a two-way ANOVA test with the Prism 5™ software.

4T1 breast cancer = settings: mouse, in vivo
Protocol: as §2, §3, §4

[4] = tested on: K-ras LSL/+ /Pten fl/fl ovarian adenocarcinomas; test: In vivo murine ovarian cancer tumor model (bioluminescence); set-up: species or system mice
Protocol: Ovarian adenocarcinomas were induced in genetically-engineered K-ras^LSL/+/Pten^fl/fl mice via intrabursal delivery of adenovirus carrying Cre recombinase, as described previously. Tumor cells were engineered to express luciferase once activated by Adeno-Cre, in order to make tumor imaging feasible before and after drug treatment.
Statistical analysis of the toxicity data was analyzed using a one-way ANOVA test with the Prism 5™ software.

SMILES | effect on viability of LLC cells [1] | effect on viability of 4T1 breast cancer cells (4T1 breast cancer cells) | EC50 ([2]; LLC cells, 48 h) [µM] | IC50 ([2]; LLC cells) [µM] | effect on viability of CP20 cells [3] | tumor growth inhibition (Lewis lung carcinoma; dose equivalent to 1.25 mg/kg of cisplatin, three doses i.v.) | apoptosis in kidney (TUNEL) (Lewis lung carcinoma; mouse, in vivo) | apoptosis in tumor (TUNEL) (Lewis lung carcinoma; mouse, in vivo) | kidney H&E pathology (Lewis lung carcinoma; mouse, in vivo) | tumor inhibition, dose dependence (Lewis lung carcinoma; three doses i.v., 1.25 and 3 mg/kg) | apoptosis in the kidney (4T1 breast cancer) | apoptosis in the kidney (TUNEL) ([4]; 3 mg/kg or equivalent Pt concentration) | body weight ([4]; daily recording) | effect on LLC cell viability ([2]; 48 h) | concentration for complete cell kill ([2]; LLC cells)
N.N.O=C([O-])C1(C(=O)[O-])CCC1.[Pt+2] [Carboplatin, cis-Diammine-(1,1-cyclobutanedicarboxylato) platinum(II)] | no effect at this concentration range | least effective of all platinates tested | 14.8 ± 0.38 | 14.8 ± 0.38 | no effect at this concentration range |  |  |  |  |  |  |  |  |  | 
N.N.[Cl][Pt][Cl] [Cisplatin, cis-dichlorodiammineplatinum(II)] |  |  | 3.87 ± 0.37 | 3.87 ± 0.37 | only at the highest concentration | only a minor tumor growth inhibition | significant apoptosis | significant induction of apoptosis | significant tubular necrosis | dose-dependent tumor inhibition | significant apoptosis in the kidney | significant apoptosis in the kidney | significant loss of body weight | identical cell kill | greater than 20 uM
